What was measured:
Type in all cases: in vivo
[1] = Physiological and biochemical parameters in HF-fed mice; conditions: HF diet, 1 mg/kg/day oral gavage; for Weight gain (% baseline): 16 weeks
Text: Adult (8-week-old) male […] mice (Precinct Animal Centre, Melbourne, Australia) and RAGE knockout (KO) mice^17 ([…] al., J Clin Invest. 113:1641-50, 2004) were housed in a temperature-controlled room on a 12-h light-dark cycle. Mice were placed on either a standard diet (AIN-93G; Specialty feeds, Perth AUS; n=10/group) or a high fat (HF) diet formulated to mimic a “Western fast food diet”, (SF05-031, Specialty Feeds; n=10). Both diets contained the same vitamin and calorie content. […] Animals receiving a HF diet were further randomized to receive alagebrium chloride at a dose of 1 mg/kg/day delivered by oral gavage. All groups were followed for 16 weeks. The following parameters were serially measured in all groups: body weight; blood glucose, measured using a glucometer; systolic blood pressure, measured by tail-cuff plethysmography in conscious, warmed mice.

[2] = tested on: cardiac hypertrophy (β-MHC, α-MHC); test: Assessment of cardiac hypertrophy in HF-fed mice; conditions: HF diet; for Mean myocyte diameter / Total LV mass / Total cardiac mass: 1 mg/kg/day oral gavage; for Gene expression Alpha MHC / Gene expression Beta MHC: real time RT-PCR
Text: Adult (8-week-old) male […] mice (Precinct Animal Centre, Melbourne, Australia) and RAGE knockout (KO) mice^17 ([…] al., J Clin Invest. 113:1641-50, 2004) were housed in a temperature-controlled room on a 12-h light-dark cycle. Mice were placed on either a standard diet (AIN-93G; Specialty feeds, Perth AUS; n=10/group) or a high fat (HF) diet formulated to mimic a “Western fast food diet”, (SF05-031, Specialty Feeds; n=10). Both diets contained the same vitamin and calorie content. […] Animals receiving a HF diet were further randomized to receive alagebrium chloride at a dose of 1 mg/kg/day delivered by oral gavage. All groups were followed for 16 weeks. The total cardiac and isolated left ventricular mass was measured at sacrifice, and expressed adjusted for body surface area in square meters (m^2). […] Cardiac hypertrophy in obesity reactivates the fetal gene program, characterized by a switch to β-Myosin heavy chain (β-MHC) expression in the adult murine heart^8 (Ng et al., Circ Res. 68:1742-50, 1991). Gene expression of markers of pathological hypertrophy, β-MHC and α-MHC were assessed by real-time quantitative RT-PCR. This was performed using the TaqMan system based on real-time detection of accumulated fluorescence, as previously described^19 (Thomas et al., J Am Soc Nephrol. 16:2976-84, 2005). Gene expression was normalized to 18S mRNA and reported as ratios compared to the level of expression in untreated control mice, which were given the arbitrary value of one.

[3] = tested on: PPARα, CD36, intra-myocardial triacylglycerol; test: Assessment of lipid metabolism in HF-fed mice; conditions: for Gene expression PPAR alpha: HF diet, real time RT-PCR
Text: Adult (8-week-old) male […] mice (Precinct Animal Centre, Melbourne, Australia) and RAGE knockout (KO) mice^17 ([…] al., J Clin Invest. 113:1641-50, 2004) were housed in a temperature-controlled room on a 12-h light-dark cycle. Mice were placed on either a standard diet (AIN-93G; Specialty feeds, Perth AUS; n=10/group) or a high fat (HF) diet formulated to mimic a “Western fast food diet”, (SF05-031, Specialty Feeds; n=10). Both diets contained the same vitamin and calorie content. […] Animals receiving a HF diet were further randomized to receive alagebrium chloride at a dose of 1 mg/kg/day delivered by oral gavage. All groups were followed for 16 weeks. Changes in myocardial energy metabolism, due to altered substrate handling, characterize obesity-related cardiac disease^5 (Boudina and Abel, Circulation 115:3213-23, 2007). In particular, intra-myocardial accumulation of triacylglycerol metabolites mediated by activation of peroxisome proliferator activated receptor α(PPARα) has been strongly associated with cardiac dysfunction in rodents fed a HF diet^20 (Ouwens et al., Diabetologia 48:1229-37, 2005). To assess the interaction of AGE/RAGE with lipotoxicity pathways in this model, the ventricular expression of PPARα and the fatty acid translocase, CD36, were assessed by real-time quantitative RT-PCR. Intra-myocardial accumulation of triacylglycerol metabolites was assessed by staining with Oil red-O in frozen cardiac sections and quantitated in cardiac homogenates extracted using the method of Bligh and Dyer and measured using a standard commercial enzymatic assay.

[4] = tested on: AGEs (CML), S100 A8/A9, RAGE, AGE-R1, AGE-R3; test: Accumulation of RAGE ligands and AGE receptor expression in HF-fed mice; conditions: for Gene expression RAGE: Wild-type mice, HF diet, real time RT-PCR, control = 1
Text: Adult (8-week-old) male […] mice (Precinct Animal Centre, Melbourne, Australia) and RAGE knockout (KO) mice^17 ([…] al., J Clin Invest. 113:1641-50, 2004) were housed in a temperature-controlled room on a 12-h light-dark cycle. Mice were placed on either a standard diet (AIN-93G; Specialty feeds, Perth AUS; n=10/group) or a high fat (HF) diet formulated to mimic a “Western fast food diet”, (SF05-031, Specialty Feeds; n=10). Both diets contained the same vitamin and calorie content. […] Animals receiving a HF diet were further randomized to receive alagebrium chloride at a dose of 1 mg/kg/day delivered by oral gavage. All groups were followed for 16 weeks. […] Cardiovasc Diabetol. 5:6, 2006) was also assessed by commercial ELISA.

[5] = Wild-type mice, listed as AL, 1 mg/kg/day

Cc1sc[n+](CC(=O)c2ccccc2)c1C.[Cl-] [alagebrium chloride, 3-(2-phenyl-2-oxoethyl)-4,5-dimethylthiazolium chloride]
Glucose ([1]; RAGE KO mice): 13.7 ± 0.7 mmol/L | Weight gain (% baseline) ([1]; RAGE KO mice): 44 ± 7 % baseline | Weight gain (% baseline) ([1]; Wild-type mice, 1 mg/kg/day): reduced | Weight gain (% baseline) [1, 5]: 27 ± 2 % baseline | Glucose ([1]; Wild-type mice, 1 mg/kg/day): equivalent changes | Glucose [1, 5]: 15.1 ± 0.5 mmol/L | Mean myocyte diameter ([2]; RAGE KO mice): 19.5 ± 0.6 μm | Total LV mass ([2]; RAGE KO mice): 9.7 ± 0.3 g/m^2 | Total cardiac mass ([2]; RAGE KO mice): 13.7 ± 0.6 g/m^2 | Gene expression Alpha MHC ([2]; RAGE KO mice): reduced | Gene expression Beta MHC ([2]; RAGE KO mice): 1.6 ± 0.2 AU/18s | Gene expression Alpha MHC ([2]; RAGE KO mice, listed as AL): 0.6 ± 0.2 AU/18s | Total LV mass ([2]; Wild-type mice): 9.5 ± 0.3 g/m^2 | Total cardiac mass ([2]; Wild-type mice): 14.5 ± 0.4 g/m^2 | Mean myocyte diameter ([2]; Wild-type mice, 1 mg/kg/day): no effect | Mean myocyte diameter [2, 5]: 19.7 ± 0.8 μm | Gene expression Alpha MHC ([2]; Wild-type mice): reduced | Gene expression Beta MHC ([2]; Wild-type mice): no effect | Gene expression Alpha MHC ([2]; Wild-type mice, listed as AL): 0.7 ± 0.2 AU/18s | Gene expression Beta MHC ([2]; Wild-type mice, listed as AL): 2.5 ± 0.3 AU/18s | intramyocardial accumulation of lipid (Oil-red O staining, cardiac triglyceride content) ([3]; HF-fed mice (FIG. 1)): unaffected | Expression of the fatty acid translocase, CD36 ([3]; HF-fed mice, RT-PCR): similar | Gene expression PPAR alpha ([3]; RAGE KO mice): reduced | Gene expression PPAR alpha ([3]; RAGE KO mice, listed as AL): 1.2 ± 0.3 AU/18s | Gene expression PPAR alpha ([3]; Wild-type mice): reduced | Gene expression PPAR alpha ([3]; Wild-type mice, listed as AL): 1.9 ± 0.4 AU/18s | increase in S100 A8/A9 following HF feeding ([4]; HF-fed mice, ELISA (FIG. 3)): attenuated | Gene expression RAGE [4]: prevented | Gene expression RAGE ([4]; listed as AL): 1.0 ± 0.2 AU/18s | AGE accumulation (ELISA for CML-modified protein) ([4]; both wild type and RAGE KO mice, HF diet (FIG. 3)): markedly reduced

— US20090088461A1, “Methods of Treating or Preventing Cardiac Disease Associated With a High Fat Diet” (Synvista Therapeutics, Inc., priority 2007, published 2009)
